Laboratory results as given in US11485708B2, “Compounds for treatment of PD-L1 diseases” (CHEMOCENTRYX, INC., priority 2019, dated 2022).

Biological target: human PD-L1 / Human PD-1 (Homo sapiens (Human), UniProt Q9NZQ7)
Test: Enzyme-Linked Immunosorbent Assay (ELISA), PD-1/PD-L1 binding
Conditions: plates coated with human PD-L1, biotinylated human PD-1 added
Protocol: 96 Well plates were coated with 1 μg/mL of human PD-L1 (obtained from R&D) in PBS overnight at 4′° C. The wells were then blocked with 2% BSA in PBS (W/V) with 0.05% TWEEN-20 for 1 hour at 37′° C. The plates were washed 3 times with PBS/0.05% TWEEN-20 and the compounds were serial diluted (1:5) in dilution medium and added to the ELISA plates. Human PD-1 and biotin 0.3 μg/mL (ACRO Biosystems) were added and incubated for 1 hour at 37° C. then washed 3 times with PBS/0.05% TWEEN-20. A second block was performed with 2% BSA in PBS (WNV)/0.05% TWEEN-20 for 10 min at 37° C. and the plates were washed 3 times with PBS/0.05% TWEEN-20. Streptavidin-HIRP was added for 1 hour at 37° C. then the plates were washed 3 times with PBS/0.05% TWEEN-20. TMB substrate was added and reacted for 20 min at 37° C. A stop solution (2 N aqueous H2SO4) was added. The absorbance was read at 450 nm using a micro-plate spectrophotometer.

human PD-L1 / Human PD-1, sequence (Q9NZQ7 19-239): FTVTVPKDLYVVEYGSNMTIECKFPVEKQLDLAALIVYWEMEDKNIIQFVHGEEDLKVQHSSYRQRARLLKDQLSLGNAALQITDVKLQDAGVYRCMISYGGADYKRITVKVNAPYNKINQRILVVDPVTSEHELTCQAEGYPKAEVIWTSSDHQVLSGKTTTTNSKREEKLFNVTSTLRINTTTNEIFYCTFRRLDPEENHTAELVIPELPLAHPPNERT

IC50 [nM]	SMILES
1000 to 10000	COc1cc(-c2cccc(-c3cccc(-c4cc(F)c(CN)c(OC)c4)c3C)c2C)ccc1CC(=O)O [Compd 1.001]
< 1000	Cc1cc(-c2cccc(-c3cccc(OCCCN4CCC(F)CC4)c3C)c2C)ccc1CN(C)C [Compd 1.083]
< 1000	Cc1c(OCCCN2[C@H](C)CC[C@H]2C)cccc1-c1cccc(-c2ccc(CN)cc2)c1C [Compd 1.121]
< 1000	CCOc1cc(-c2cccc(-c3cccc(OCCCN4[C@H](C)CC[C@H]4C)c3C)c2C)ccc1CN(C)C [Compd 1.075]
< 1000	Cc1c(OCCCN2CCC2(C)C)cccc1-c1cccc(-c2ccc3c(c2)CNCCC3)c1C [Compd 1.123]
< 1000	Cc1c(OCCCN2[C@H](C)CC[C@H]2C)cccc1-c1cccc(-c2ccc3c(c2)CCN(CCO)C3)c1C [Compd 1.107]
< 1000	COc1cc(-c2cccc(-c3cccc(-c4ccc5c(c4)CCNC5)c3C)c2C)cc(F)c1CNCCO [Compd 1.040, 2-(((3-fluoro-5-methoxy-2′,2″-dimethyl-3″-(1,2,3,4-tetrahydroisoquinolin-6-yl)-[1,1′:3′,1″-terphenyl]-4-yl)methyl)amino)ethan-1-ol]
< 1000	Cc1c(OCCCN2[C@H](C)CC[C@H]2C)cccc1-c1cccc(-c2ccc(C(C)N)cc2)c1C (stereo partly shown) [Compd 1.113]
< 1000	COc1cc(-c2cccc(-c3cccc(-c4cc(F)c(CNCCCCO)c(OC)c4)c3C)c2C)cc(F)c1CNCCCCO [Compd 1.049]
1000 to 10000	COc1cc(-c2cccc(-c3cccc4c3CCNC4)c2C)cc(F)c1CN [Compd 1.022]
< 1000	COc1cc(-c2cccc(-c3cccc(-c4cc(F)c(CN(C)C[C@@H]5CCC(=O)N5)c(OC)c4)c3C)c2C)cc(F)c1CN(C)C[C@@H]1CCC(=O)N1 [Compd 1.047]
< 1000	COc1cc(-c2cccc(-c3cccc(-c4cc(F)c(CN(C)CCCC(=O)O)c(OC)c4)c3C)c2C)cc(F)c1CN(C)CCCC(=O)O [Compd 1.058]
1000 to 10000	Cc1c(-c2ccc(CN)cc2)cccc1-c1ccc2c(c1)OCCO2 [Compd 1.127]
< 1000	Cc1c(OCCCN2CCCC2(C)C)cccc1-c1cccc(-c2ccc3c(c2)CCNC3)c1C [Compd 1.105]
< 1000	COc1cc(-c2cccc(-c3cccc(-c4cc(F)c(CNCCCO)c(OC)c4)c3C)c2C)cc(F)c1CNCCCO [Compd 1.056]
< 1000	COc1cc(-c2cccc(-c3cccc(-c4cc(F)c(CNCCCCC(=O)O)c(OC)c4)c3C)c2C)cc(F)c1CNCCCCC(=O)O [Compd 1.054]
< 1000	Cc1c(OCCCN2[C@H](C)CC[C@H]2C)cccc1-c1cccc(-c2ccc(CNCCC(=O)O)cc2)c1C [Compd 1.097]
< 1000	COc1c(-c2ccc3c(c2)CCNC3)cccc1-c1cccc(OCCCN2CCC2(C)C)c1C [Compd 1.088, 6-(3′-(3-(2,2-dimethylazetidin-1-yl)propoxy)-2-methoxy-2′-methyl-[1,1′-biphenyl]-3-yl)-1,2,3,4-tetrahydroisoquinoline]
< 1000	COc1cc(-c2cccc(-c3cccc(OCCCN4[C@H](C)CC[C@H]4C)c3C)c2C)ccc1CNCCCC(=O)O [Compd 1.066]
< 1000	Cc1c(OCCCN2[C@H](C)CC[C@H]2C)cccc1-c1cccc(-c2ccc3c(c2)CNC3)c1C [Compd 1.120]

IC50 [nM]	SMILES
< 1000	Cc1c(OCCCN2[C@H](C)CC[C@H]2C)cccc1-c1cccc(-c2ccc([C@@H](C)N)cc2)c1C [Compd 1.099]
1000 to 10000	Cc1c(OCCCN2[C@H](C)CC[C@H]2C)cccc1-c1cccc(-c2ccc3c(c2)CC(C(=O)O)NC3)c1C (stereo partly shown) [Compd 1.064]
1000 to 10000	Cc1c(OCCCN2CCC(F)CC2)cccc1-c1cccc(-c2ccc3c(c2C)CCNC3)c1C [Compd 1.087]
1000 to 10000	COc1cccc(-c2cccc(-c3ccc4c(c3)CCNC4)c2C)c1C [Compd 1.115, 6-(3′-methoxy-2,2′-dimethyl-[1,1′-biphenyl]-3-yl)-1,2,3,4-tetrahydroisoquinoline]
1000 to 10000	COc1cc(-c2cccc(-c3cc(F)c(CN)c(OC)c3)c2C)ccc1F [Compd 1.021]
1000 to 10000	COc1ccc(-c2cccc(-c3cc(F)c(CN)c(OC)c3)c2C)c(F)c1 [Compd 1.030]
< 1000	Cc1c(OCCCN2CCC(F)CC2)cccc1-c1cccc(-c2ccc(CN)cc2)c1C [Compd 1.077]
1000 to 10000	COc1cc(-c2cccc(-c3ccc4c(c3)OC(C3=NCCN3)CO4)c2C)cc(F)c1CN (stereo not shown) [Compd 1.009]
< 1000	COc1cc(-c2cccc(-c3cccc(-c4cc(F)c(CN(C)C)c(OC)c4)c3C)c2C)cc(F)c1CN(C)C [Compd 1.059]
< 1000	COc1cc(-c2cccc(-c3cccc(-c4cc(F)c(CN5CCC(O)CC5)c(OC)c4)c3C)c2C)cc(F)c1CN1CCC(O)CC1 [Compd 1.043, 1,1′-((3,3′″-difluoro-5,5′″-dimethoxy-2′,2″-dimethyl-[1,1′:3′,1″:3″,1′″-quaterphenyl]-4,4′″-diyl)bis(methylene))bis(piperidin-4-ol)]
1000 to 10000	COc1cc(-c2cccc(-c3cccc(OC4CCCNC4)c3C)c2C)cc(F)c1CN (stereo not shown) [Compd 1.014]
1000 to 10000	COc1cccc(-c2cccc(-c3ccc4c(c3)CCNC4)c2C)c1 [Compd 1.116, 6-(3′-methoxy-2-methyl-[1,1′-biphenyl]-3-yl)-1,2,3,4-tetrahydroisoquinoline]
< 1000	Cc1c(OCCCN2[C@H](C)CC[C@H]2C)cccc1-c1cccc(-c2cc(F)c(CNCCCC(=O)O)c(F)c2)c1C [Compd 1.061]
< 1000	COc1cc(-c2cccc(-c3cccc(-c4ccc(CN)c(F)c4)c3C)c2C)cc(F)c1CN [Compd 1.037]
< 1000	Cc1c(OCCCN2[C@H](C)CC[C@H]2C)cccc1-c1cccc(-c2ccc3c(c2)CCN(CC(=O)O)C3)c1C [Compd 1.108]
1000 to 10000	Cc1c(OCCCN2CCC(F)CC2)cccc1-c1cccc(-c2ccc(CN(C)C)cc2Cl)c1C [Compd 1.095]
< 1000	COc1cc(-c2cccc(-c3cccc(OCCCN4[C@H](C)CC[C@H]4C)c3C)c2C)ccc1CN(C)C [Compd 1.073]
< 1000	COc1cc(-c2cccc(-c3cccc(-c4cc(F)c(CNC(C)C)c(OC)c4)c3C)c2C)cc(F)c1CNC(C)C [Compd 1.048]
< 1000	COc1cc(-c2cccc(-c3cccc(OCCCN4CCC(F)CC4)c3C)c2C)cc(F)c1CN(C)C [Compd 1.078]
< 1000	Cc1c(OCCCN2CCC(F)CC2)cccc1-c1cccc(-c2ccc3c(c2)CCNC3)c1C [Compd 1.110]

IC50 [nM]	SMILES
< 1000	Cc1c(OCCCN2[C@H](C)CC[C@H]2C)cccc1-c1cccc(-c2ccc(CCN)cc2)c1C [Compd 1.118]
< 1000	Cc1c(OCCCN2CCC(F)CC2)cccc1-c1cccc(-c2ccc(CN)c(F)c2)c1C [Compd 1.086]
1000 to 10000	Cc1c(OCCCN2CCC(F)CC2)cccc1-c1cccc(-c2ccc(CN3CCCC[C@H]3C(=O)O)cc2)c1C [Compd 1.071]
< 1000	COc1cc(-c2cccc(-c3cccc(OCCCN4[C@H](C)CC[C@H]4C)c3C)c2C)cc2c1CNCC2 [Compd 1.060]
< 1000	COc1cc(-c2cccc(-c3cccc(-c4cc(F)c(CCN)c(OC)c4)c3C)c2C)cc(F)c1CN [Compd 1.039]
1000 to 10000	COc1cc(-c2cccc(-c3ccc4c(c3C)CNCC4)c2C)cc(F)c1CNCCO [Compd 1.020]
1000 to 10000	COc1cc(-c2cccc(-c3cccc(OCCCN4CCC(F)CC4)c3C)c2C)cc(OC)c1CN(C)C [Compd 1.079]
< 1000	COc1cc(-c2cccc(-c3cccc(-c4cc(F)c(CNCCC(=O)O)c(OC)c4)c3C)c2C)cc(F)c1CNCCC(=O)O [Compd 1.055]
< 1000	Cc1c(-c2ccc3c(c2)CCNC3)cccc1-c1cccc(OCCCN2[C@H](C)CC[C@H]2C)c1F [Compd 1.091]
1000 to 10000	COc1cc(CNCCCC(=O)O)cc(-c2cccc(-c3cccc(OCCCN4[C@H](C)CC[C@H]4C)c3C)c2C)c1 [Compd 1.065]
< 1000	Cc1c(OCCCN2CCC(O)CC2)cccc1-c1cccc(-c2ccc3c(c2)CCNC3)c1C [Compd 1.111]
< 1000	Cc1c(OCCCN2CCC2(C)C)cccc1-c1cccc(-c2ccc3c(c2)CCNC3)c1Cl [Compd 1.089, 6-(3′-(3-(2,2-dimethylazetidin-1-yl)propoxy)-2-chloro-2′-methyl-[1,1′-biphenyl]-3-yl)-1,2,3,4-tetrahydroisoquinoline]
< 1000	Cc1c(OCCCN2CCC(F)CC2)cccc1-c1cccc(-c2ccc(CN)cc2F)c1C [Compd 1.082]
< 1000	COc1cc(-c2cccc(-c3cccc(-c4cc(F)c(CNCCCC(=O)O)c(OC)c4)c3C)c2C)cc(F)c1CNCCCC(=O)O [Compd 1.063, 4,4′-(((3,3′″-difluoro-5,5′″-dimethoxy-2′,2″-dimethyl-[1,1′:3′,1″:3″,1′″-quaterphenyl]-4,4′″-diyl)bis(methylene))bis(azanediyl))dibutyric acid]
< 1000	Cc1c(OCCCN2[C@H](C)CC[C@H]2C)cccc1-c1cccc(-c2ccc(CNCC(=O)O)cc2)c1C [Compd 1.101]
< 1000	Cc1c(OCCCN2CCC(C)(F)CC2)cccc1-c1cccc(-c2ccc3c(c2)CCNC3)c1C [Compd 1.104]
< 1000	Cc1c(OCCCN2[C@H](C)CC[C@H]2C)cccc1-c1cccc(-c2ccc3c(c2)CC(C(=O)O)NC3)c1C (stereo partly shown) [Compd 1.068]
< 1000	COc1cc(-c2cccc(-c3cccc(-c4cc(F)c(CNCCO)c(OC)c4)c3C)c2C)cc(F)c1CN [Compd 1.035]
